Experimental findings from PubChem BioAssay (NCI) are described below.

Among the test systems are SK-MEL-28 melanoma; SN12C renal; HOP-92 NSCLC; UACC-62 melanoma; NCI-H226 lung; SK-MEL-5 melanoma; NCI/ADR-RES ovarian; MDA-MB-231 breast; SF-295 CNS; IGROV1 ovarian.
Experiment in all cases: DTP human tumour cell line panel, 48 h

The structures appear in SMILES notation.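 Briefly, cells in 96-well plates were exposed to five compound concentrations for 48 h, and endpoints were estimated by linear interpolation. The concentration for full growth arrest is given as TGI.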 Where only a bound is given, the exact number is not on record here.

By TGI is commonly meant the concentration giving total growth inhibition.

On to `C[C@@]12C[C@@H](c3ccccc3O1)N1Cc3ccccc3CSC1=N2`, for which the TGI in the assay with SK-MEL-28 melanoma, in the assay with SN12C renal, in the assay with HOP-92 NSCLC, in the assay on UACC-62 melanoma, in the assay on NCI-H226 lung and with SK-MEL-5 melanoma was > 100 µM each time. The TGI in the assay on NCI/ADR-RES ovarian, with MDA-MB-231 breast, in the assay on SF-295 CNS and in the assay on IGROV1 ovarian was > 100 µM each time.
For `COC12C=CC(CC1)C(C)(C)C2OS(C)(=O)=O` (stereo not given), the TGI in the assay on SK-MEL-28 melanoma, with SN12C renal, in the assay with HOP-92 NSCLC, in the assay on UACC-62 melanoma, in the assay with NCI-H226 lung and in the assay with SK-MEL-5 melanoma was > 100 µM throughout. The TGI with NCI/ADR-RES ovarian, in the assay with MDA-MB-231 breast, in the assay with SF-295 CNS and in the assay with IGROV1 ovarian was > 100 µM each time.
Turning to `CCOC(=O)C(NC(=O)CC)(Nc1ccc(S(=O)(=O)Nc2ccc(OC)nn2)cc1)C(F)(F)F` (stereo not given), the TGI in the assay with SK-MEL-28 melanoma, in the assay on SN12C renal, with HOP-92 NSCLC, with UACC-62 melanoma, in the assay with NCI-H226 lung and in the assay with SK-MEL-5 melanoma was > 100 µM each time. Further, the TGI with NCI/ADR-RES ovarian, in the assay on MDA-MB-231 breast, in the assay on SF-295 CNS and with IGROV1 ovarian was > 100 µM each time.
As for `O=C(/C=C/c1ccccc1)Oc1cccc(Br)c1`, the TGI in the assay with SK-MEL-28 melanoma, in the assay with SN12C renal, with HOP-92 NSCLC, with UACC-62 melanoma, in the assay on NCI-H226 lung and with SK-MEL-5 melanoma was > 100 µM each time. Moreover, the concentration for total growth inhibition (TGI) is > 100 µM in the assay with NCI/ADR-RES ovarian, > 100 µM in the assay with MDA-MB-231 breast, 68.3 µM with SF-295 CNS and > 100 µM in the assay with IGROV1 ovarian.
For `N#Cc1c(N2CCCC2)nsc1Nc1ccc(F)cc1`, the TGI in the assay with SK-MEL-28 melanoma, in the assay with SN12C renal, with HOP-92 NSCLC, with UACC-62 melanoma, in the assay on NCI-H226 lung and in the assay with SK-MEL-5 melanoma was > 100 µM each time. Further, the TGI in the assay with NCI/ADR-RES ovarian, in the assay with MDA-MB-231 breast, in the assay on SF-295 CNS and in the assay on IGROV1 ovarian was > 100 µM in each case.
Take `CC(=O)OCC1OC(SC2=NC(=O)/C(=C/c3ccccc3)S2)C(OC(C)=O)C(OC(C)=O)C1OC(C)=O` (stereo not given): the TGI is > 100 µM in the assay on SK-MEL-28 melanoma; > 100 µM in the assay on SN12C renal; 44.2 µM in the assay with HOP-92 NSCLC; 87.2 µM in the assay with UACC-62 melanoma; 95 µM in the assay with NCI-H226 lung; 42.8 µM in the assay on SK-MEL-5 melanoma. In addition, the TGI in the assay with NCI/ADR-RES ovarian was 84 µM; in the assay with MDA-MB-231 breast, 44.5 µM; in the assay on SF-295 CNS it was > 100 µM; in the assay with IGROV1 ovarian, > 100 µM.
For `O=C1O[C@H]2C3C4CCC(C4[C@@H]2I)[C@H]13` (stereo not given in full), the TGI in the assay on SK-MEL-28 melanoma, in the assay with SN12C renal, in the assay with HOP-92 NSCLC, in the assay on UACC-62 melanoma, in the assay with NCI-H226 lung and with SK-MEL-5 melanoma was > 100 µM each time. Moreover, the total growth inhibition concentration (TGI) in the assay with NCI/ADR-RES ovarian, in the assay on MDA-MB-231 breast, in the assay with SF-295 CNS and with IGROV1 ovarian was > 100 µM in each case.
As for `O=c1[nH]nc(Cc2ccc(Cl)cc2)n1/N=C/c1c[nH]c2ccccc12`, the TGI with SK-MEL-28 melanoma, with SN12C renal, in the assay on HOP-92 NSCLC, in the assay with UACC-62 melanoma, with NCI-H226 lung and in the assay on SK-MEL-5 melanoma was > 100 µM throughout. For the same molecule, the TGI with NCI/ADR-RES ovarian, with MDA-MB-231 breast, in the assay with SF-295 CNS and with IGROV1 ovarian was > 100 µM throughout.
As for `COc1ccc(Cn2c3ccc([N+](=O)[O-])cc3c(=O)n2Cc2ccccn2)cc1`, the TGI with SK-MEL-28 melanoma is > 100 µM; in the assay on SN12C renal, > 100 µM; in the assay on HOP-92 NSCLC, > 100 µM; in the assay with UACC-62 melanoma it was > 100 µM; in the assay on NCI-H226 lung, > 100 µM; with SK-MEL-5 melanoma, 83.9 µM. The TGI in the assay on NCI/ADR-RES ovarian, in the assay on MDA-MB-231 breast, with SF-295 CNS and with IGROV1 ovarian was > 100 µM throughout.
`CC(C)=CCC[C@@H](C)C1=CC(=O)C(C)=C(O)C1=O`: the TGI in the assay on SK-MEL-28 melanoma is 31 µM; in the assay with SN12C renal, 22.6 µM; in the assay with HOP-92 NSCLC it was 7.18 µM; in the assay with UACC-62 melanoma it was 24.1 µM; in the assay with NCI-H226 lung it was 22.8 µM; with SK-MEL-5 melanoma, 16.4 µM. Moreover, the TGI turned out to be 11.3 µM in the assay with NCI/ADR-RES ovarian, 18.1 µM in the assay on MDA-MB-231 breast, 27.3 µM with SF-295 CNS and 23.2 µM in the assay with IGROV1 ovarian.
As for `Nc1ccccc1OCCCOc1ccccc1N`, the total growth inhibition concentration (TGI) with SK-MEL-28 melanoma, in the assay with SN12C renal, in the assay on HOP-92 NSCLC, in the assay with UACC-62 melanoma, in the assay on NCI-H226 lung and in the assay with SK-MEL-5 melanoma was > 100 µM each time. Further, the TGI with NCI/ADR-RES ovarian, in the assay with MDA-MB-231 breast, in the assay on SF-295 CNS and in the assay on IGROV1 ovarian was > 100 µM in each case.
As for `CN(C)CC1CCCc2ccccc2C1=O` (stereo not given), the TGI in the assay on SK-MEL-28 melanoma came out at 13 µM; with SN12C renal, 24.2 µM; with HOP-92 NSCLC it was 34.8 µM; in the assay with UACC-62 melanoma, 6.18 µM; with NCI-H226 lung it was 48.8 µM; in the assay on SK-MEL-5 melanoma it was 15.9 µM. In addition, the TGI amounted to 17.5 µM in the assay with NCI/ADR-RES ovarian, 9.7 µM in the assay on MDA-MB-231 breast, 32.5 µM in the assay on SF-295 CNS and 4.17 µM in the assay on IGROV1 ovarian.
As to `COc1cc(C2c3cc(OC)c(OC)c(O)c3C(=O)C3CCC(=O)N32)cc(OC)c1OC` (stereo not given), the TGI in the assay with SK-MEL-28 melanoma, in the assay on SN12C renal, in the assay with HOP-92 NSCLC, with UACC-62 melanoma, in the assay with NCI-H226 lung and with SK-MEL-5 melanoma was > 100 µM in each case. Further, the TGI in the assay with NCI/ADR-RES ovarian, with MDA-MB-231 breast, in the assay on SF-295 CNS and in the assay on IGROV1 ovarian was > 100 µM throughout.
For the molecule `CC(=O)c1ccc2c3c1O[C@H]1c4[nH]c5ccccc5c4C[C@@]4(O)[C@@H](C2)N(CC2CC2)CC[C@]314`, the TGI was > 100 µM in the assay on SK-MEL-28 melanoma; 34.4 µM in the assay with SN12C renal; 28.2 µM in the assay with HOP-92 NSCLC; 30.7 µM in the assay with UACC-62 melanoma; 42.5 µM in the assay with NCI-H226 lung; 31.8 µM in the assay with SK-MEL-5 melanoma. Further, the TGI in the assay on NCI/ADR-RES ovarian amounted to 26.6 µM; with MDA-MB-231 breast, 25.7 µM; with SF-295 CNS, 29 µM; in the assay with IGROV1 ovarian, 30.1 µM.
For `CS(=O)(=O)OCC1CCCCCCCCCCC12SCCCS2` (stereo not given), the TGI in the assay with SK-MEL-28 melanoma, with SN12C renal, with HOP-92 NSCLC, in the assay with UACC-62 melanoma, in the assay on NCI-H226 lung and with SK-MEL-5 melanoma was > 100 µM in each case. In addition, the total growth inhibition concentration (TGI) in the assay on NCI/ADR-RES ovarian, in the assay on MDA-MB-231 breast, with SF-295 CNS and with IGROV1 ovarian was > 100 µM throughout.
Consider `O=C1c2cccnc2-c2nccc3c2c1nc1ccc(Br)cc13`, for which the TGI came out at 0.169 µM in the assay with SK-MEL-28 melanoma; 0.205 µM in the assay on SN12C renal; 0.794 µM in the assay on HOP-92 NSCLC; 0.124 µM with UACC-62 melanoma; 0.0639 µM with NCI-H226 lung; 0.0887 µM in the assay with SK-MEL-5 melanoma. The TGI was found to be 0.176 µM with NCI/ADR-RES ovarian, 0.211 µM in the assay on MDA-MB-231 breast, 0.114 µM in the assay with SF-295 CNS and 0.143 µM in the assay with IGROV1 ovarian.
For the molecule `CCN(CC)c1ccc2cc(C(N)=O)c(=Nc3ccc(F)cc3)oc2c1`, the TGI in the assay on SK-MEL-28 melanoma, in the assay with SN12C renal, with HOP-92 NSCLC, with UACC-62 melanoma, in the assay with NCI-H226 lung and with SK-MEL-5 melanoma was > 100 µM each time. Further, the TGI with NCI/ADR-RES ovarian was > 100 µM; in the assay on MDA-MB-231 breast it was 88.5 µM; in the assay on SF-295 CNS, > 100 µM; with IGROV1 ovarian, > 100 µM.
